Test results as given in patent US8980830B2 (priority 2007, dated 2015).
Square brackets hold non-standard residues; d marks the D form. Ends that are not written are not given here. Peptide text beside a SMILES is read from it. PhLac = O=C(O)[C@@H](O)Cc1ccccc1

Tests used:
[1] = molecular target: GLP-1 Receptor (Homo sapiens, UniProt P43220); experiment: Functional assay, cAMP induction (luciferase reporter, HEK293) at GLP-1 receptor; format: cell-based
[2] = molecular target: T1, Glucagon Receptor (Homo sapiens, UniProt P47871); experiment: cAMP inhibition: antagonism of glucagon-induced cAMP at glucagon receptor; format: cell-based; parameters: expressed in transfected cells; host or cells: HEK293
T1 sequence (P47871 26-477): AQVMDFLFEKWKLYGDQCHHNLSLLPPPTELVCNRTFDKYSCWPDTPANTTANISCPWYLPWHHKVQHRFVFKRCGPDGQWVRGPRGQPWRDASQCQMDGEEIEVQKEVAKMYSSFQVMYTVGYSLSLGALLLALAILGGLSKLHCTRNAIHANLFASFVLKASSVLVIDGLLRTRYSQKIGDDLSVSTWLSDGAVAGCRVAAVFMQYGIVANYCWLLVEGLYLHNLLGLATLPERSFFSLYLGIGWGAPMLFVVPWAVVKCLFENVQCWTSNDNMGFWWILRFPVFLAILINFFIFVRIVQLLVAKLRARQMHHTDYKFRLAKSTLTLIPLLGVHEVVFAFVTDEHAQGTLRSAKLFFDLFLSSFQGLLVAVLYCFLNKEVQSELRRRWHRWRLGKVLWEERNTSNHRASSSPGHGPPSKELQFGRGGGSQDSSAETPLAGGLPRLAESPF

[3] = molecular target: T1, Glucagon Receptor; experiment: Functional assay, cAMP induction (luciferase reporter, HEK293) at glucagon receptor; format: cell-based; parameters: expressed in transfected cells; host or cells: HEK293
[4] = pH 7
[5] = Glucagon solubility assay; conditions: Table 10
[6] = molecular target: T1, Glucagon Receptor; experiment: Glucagon receptor binding assay (scintillation proximity competition binding); conditions: read-out: IC50 (nM) (Receptor binding); Table 11; ND: not detected

Sequence of GLP-1 Receptor (P43220 24-463): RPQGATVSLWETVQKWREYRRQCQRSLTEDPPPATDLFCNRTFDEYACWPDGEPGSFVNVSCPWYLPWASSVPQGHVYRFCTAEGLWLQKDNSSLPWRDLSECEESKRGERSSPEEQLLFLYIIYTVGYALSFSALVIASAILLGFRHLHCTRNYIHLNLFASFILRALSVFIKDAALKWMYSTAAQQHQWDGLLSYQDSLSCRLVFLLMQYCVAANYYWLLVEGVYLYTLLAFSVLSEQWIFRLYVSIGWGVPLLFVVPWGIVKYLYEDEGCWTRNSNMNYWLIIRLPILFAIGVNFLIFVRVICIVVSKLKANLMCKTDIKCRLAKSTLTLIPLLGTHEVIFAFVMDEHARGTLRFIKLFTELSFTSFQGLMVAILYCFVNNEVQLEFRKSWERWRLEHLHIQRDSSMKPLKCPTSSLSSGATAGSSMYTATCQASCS

## HSQGTFTSDYARYLDARRAREFIKWLVRGRG-NH2 [ANK2 (Bayer peptide), reference compound]
[1]
  GLP-1 agonism, in words: very potent GLP-1 agonism
[2]
  glucagon antagonism, in words: no meaningful glucagon antagonism
[2]; Table 14
  Glucagon IC50 (nM): agonist
[2]; Table 19
  Glucagon antagonism IC50 (nM, inhibit 0.8 nM glucagon): weak agonist
[3]
  glucagon agonism, in words: weak, but full glucagon agonism

## Glucagon Cys^17 Mal-PEG-5K [Glucagon, Cys17PEG5K]
[4]
  Percent Soluble: 94%

## CSCC[C@H](NC(=O)[C@H](CC(C)C)NC(=O)[C@H](Cc1c[nH]c2ccccc12)NC(=O)[C@H](CCC(N)=O)NC(=O)[C@@H](NC(=O)[C@H](Cc1ccccc1)NC(=O)[C@H](CC(=O)O)NC(=O)[C@H](CCC(N)=O)NC(=O)[C@H](C)NC(=O)[C@H](CCCNC(=N)N)NC(=O)[C@H](CCCNC(=N)N)NC(=O)[C@H](CO)NC(=O)[C@H](CC(=O)O)NC(=O)[C@H](CC(C)C)NC(=O)[C@H](Cc1ccc(O)cc1)NC(=O)[C@H](CCCCN)NC(=O)[C@H](CO)NC(=O)[C@H](Cc1ccc(O)cc1)NC(=O)[C@H](CCC(=O)O)NC(=O)[C@H](CO)NC(=O)[C@@H](NC(=O)[C@@H](O)Cc1ccccc1)[C@@H](C)O)C(C)C)C(=O)N[C@@H](CC(N)=O)C(=O)N[C@H](C(N)=O)[C@@H](C)O [[PLA^6, E^9]Glucagon(aa6-29)-NH2] (H-[PhLac]TSEYSKYLDSRRAQDFVQWLMNT-NH2)
[1]; Table 25
  GLP-1 agonism EC50(nM): No agonism
[2]; Glucagon antagonism IC50(nM, inhibit 0.5nM G), Table 25
  IC50: 23.7 ± 4.16 nM
[5]
  Solubility (%, pH 6-8): 11%
[6]
  IC50: 12.3 ± 0.13 nM

## Glucagon Cys^24 maleimido, PEG-3.4K-dimer [Glucagon C24 Dimer]
[3]; read-out: cAMP Induction Glucagon Receptor EC50, Table 3, pegylated analogs
  EC50: 0.0001 ± 5e-05 µM

## CSCC[C@H](NC(=O)[C@H](CC(C)C)NC(=O)[C@H](Cc1c[nH]c2ccccc12)NC(=O)[C@H](CCC(N)=O)NC(=O)[C@@H](NC(=O)[C@H](Cc1ccccc1)NC(=O)[C@H](CC(=O)O)NC(=O)[C@H](CCC(N)=O)NC(=O)[C@H](C)NC(=O)[C@H](CCCNC(=N)N)NC(=O)[C@H](CCCNC(=N)N)NC(=O)[C@H](CO)NC(=O)[C@H](CC(=O)O)NC(=O)[C@H](CC(C)C)NC(=O)[C@H](Cc1ccc(O)cc1)NC(=O)[C@H](CCCCN)NC(=O)[C@H](CO)NC(=O)[C@H](Cc1ccc(O)cc1)NC(=O)[C@H](CC(=O)O)NC(=O)[C@H](CO)NC(=O)[C@@H](NC(=O)[C@@H](O)Cc1ccccc1)[C@@H](C)O)C(C)C)C(=O)N[C@@H](CC(=O)O)C(=O)N[C@H](C(N)=O)[C@@H](C)O [[PLA^6, D^9, D^28] Glucagon(aa6-29)-NH2]
[5]
  Solubility (%, pH 6-8): 100%

## CSCC[C@H](NC(=O)[C@H](CC(C)C)NC(=O)[C@H](Cc1c[nH]c2ccccc12)NC(=O)[C@H](CCC(N)=O)NC(=O)[C@@H](NC(=O)[C@H](Cc1ccccc1)NC(=O)[C@H](CC(=O)O)NC(=O)[C@H](CCC(N)=O)NC(=O)[C@H](C)NC(=O)[C@H](CCCNC(=N)N)NC(=O)[C@H](CCCNC(=N)N)NC(=O)[C@H](CO)NC(=O)[C@H](CC(=O)O)NC(=O)[C@H](CC(C)C)NC(=O)[C@H](Cc1ccc(O)cc1)NC(=O)[C@H](CCCCN)NC(=O)[C@H](CO)NC(=O)[C@H](Cc1ccc(O)cc1)NC(=O)[C@H](CC(=O)O)NC(=O)[C@H](CO)NC(=O)[C@@H](NC(=O)[C@@H](O)Cc1ccccc1)[C@@H](C)O)C(C)C)C(=O)N[C@@H](CC(N)=O)C(=O)N[C@H](C(=O)O)[C@@H](C)O [[PLA^6, D^9]Glucagon(aa6-29)-COOH] (H-[PhLac]TSDYSKYLDSRRAQDFVQWLMNT-OH)
[5]
  Solubility (%, pH 6-8): 96%
